The test system of one test is Q7 cells. The experiment in a line: RSL3-induced loss of Q7 cell viability. It is filed as cell-based, mouse. As to the method: Ferroptotic cell death was induced in Q7 cells using RSL3, a GPX4 inhibitor previously described. All four stereoisomers of RSL3 were synthesized and purified using published methods. […] To assess compound rescue activity and potency from ferroptotic cell death, Q7 cells were seeded in clear bottom, black wall tissue culture-treated polystyrene plates (Corning) using either an electronic multichannel pipette or a Multidrop™ Combi Reagent Dispenser (ThermoFisher Scientific). Cells were incubated for 5 hours at 33°C in an atmosphere with 95% humidity and 5% CO2 to allow attachment of the cells to the culture plate. Test compounds were administered to the desired final concentrations using a D300e Digital Dispenser (Tecan), followed within 15 minutes by RSL3 (2 μM final concentration). DMSO diluent was back-filled to a final concentration of 0.3% (v/v). Cell plates were incubated at 33°C (5% CO2, 95% humidity) for 18 hours. After a 15-minute equilibration to room temperature, cell number/viability was assessed using the CellTiter-Glo® 2.0 Cell Titer Glo 2.0 reagent (a luminescence-based assay to quantitate ATP; Promega) which was added using the Multidrop™ Combi Reagent Dispenser (Thermo Fisher Scientific). After 15 minutes of incubation at room temperature, the luminescence (100 ms integration time) per well was determined using the BioTek Synergy plate reader. Data was imported into and analyzed using Dotmatics Studies software suite. EC50 values for each compound were estimated using standard four-parameter curve fitting algorithms. pEC50 is defined as negative-log10 (EC50) in M units.

For test [1], the system named is Mouse striatal Q7 cells (STHdhQ7/Q7). As to the kind of experiment: RSL3 ferroptosis cell rescue (cellular survival assay, CellTiter-Glo). The following applies: for EC50: Mus musculus, 18 h, read-out: RSL3 Ferroptosis Cell Assay Average EC50, Q7 cells, RSL3 2 μM, 18 h co-treatment, CellTiter-Glo 2.0. (In general: In ATP-based viability assays light output follows the ATP content of the culture.)

Test [2] has as its target T1, Rabbit 15-lipoxygenase (rLOX15) (Oryctolagus cuniculus, UniProt P12530).
T1 construct: purchased Enzo Life Sciences, Inc. BML-PL015
T1 sequence (P12530 1-663): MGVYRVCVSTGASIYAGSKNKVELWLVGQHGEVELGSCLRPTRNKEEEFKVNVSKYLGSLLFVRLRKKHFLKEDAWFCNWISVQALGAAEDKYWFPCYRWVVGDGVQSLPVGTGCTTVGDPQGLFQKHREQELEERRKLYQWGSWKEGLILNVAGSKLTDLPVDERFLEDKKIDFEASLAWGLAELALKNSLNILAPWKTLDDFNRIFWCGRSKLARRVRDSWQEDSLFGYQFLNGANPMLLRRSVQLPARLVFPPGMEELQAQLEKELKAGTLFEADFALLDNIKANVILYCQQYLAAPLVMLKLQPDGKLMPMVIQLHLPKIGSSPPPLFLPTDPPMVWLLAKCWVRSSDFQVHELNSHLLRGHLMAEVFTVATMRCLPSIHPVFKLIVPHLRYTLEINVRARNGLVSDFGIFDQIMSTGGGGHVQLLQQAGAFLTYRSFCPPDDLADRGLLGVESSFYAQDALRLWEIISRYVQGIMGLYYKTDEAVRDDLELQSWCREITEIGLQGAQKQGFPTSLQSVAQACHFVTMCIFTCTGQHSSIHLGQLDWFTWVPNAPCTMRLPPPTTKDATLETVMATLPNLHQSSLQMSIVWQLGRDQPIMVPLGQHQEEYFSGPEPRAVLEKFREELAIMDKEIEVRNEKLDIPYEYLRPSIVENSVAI
The experiment in a line: Lipoxygenase enzyme inhibition assay. Format: biochemical. The following applies: for activity at 100 µM: read-out: 15-Lipoxygenase Enzyme Assay % activity at 100 μM; for IC50: 50 μM arachidonic acid substrate. As to the method: Rabbit 15-lipoxygenase (rLOX15, part number BML-PL015, lot number 3-P9009a) was obtained from Enzo Life Sciences, Inc. Sodium cholate (part number C6445, lot number 094K0209) was obtained from Sigma-Aldrich.
Stock solutions of test compounds were prepared in DMSO and then diluted to final assay concentrations in cholate mix such that final cholate and DMSO concentrations were maintained at 0.2%.

Where two headings read alike, the source gives them in different places.

The term IC50 denotes the concentration needed to halve the response being measured. As usually defined, the EC50 is the concentration at which the effect is half-maximal.

Regarding `COC(=O)c1ccc([C@H]2c3[nH]c4ccccc4c3C[C@H](C(=O)OC)N2C(=O)CCl)cc1` [(1S,3R)-RSL3], in the test with Q7 cells (RSL3 2 μM, 18 h, typical), the “reduction of cell number/viability” value is > 80%. In the test on Q7 cells (RSL3 ≥1 μM), the “onset of cell death after RSL3 addition” value is recorded as ~ 5 h. Moreover, the “loss of cell viability” value in the test on Q7 cells (RSL3 ≥1 μM, 18 h after treatment) is 80–95%. Besides, the IC50 in the test on Q7 cells (most potent single stereoisomer of RSL3, read-out: IC50 for inhibition of Q7 cell viability) was ~200 nM.

For `Cc1c(C)c2c(c(C)c1O)CC[C@@](C)(CCC(=O)O)O2` [α-CEHC], in test [1], the EC50 amounted to 8510 nM. The activity at 100 µM in test [2] (rabbit 15-LO, compound 100 μM) is 24%.

`CC(C)=CCC/C(C)=C/CC/C(C)=C/CC[C@]1(C)CCc2c(C)c(O)c(C)c(C)c2O1` [αT3, α-tocotrienol]: in test [1], the EC50 is 167 nM. In addition, the “fold more potent in inhibiting ferroptosis, tocotrienol vs corresponding tocopherol” value in test [1] (Q7 cells, RSL3, EC50 ratio) was ~ 30 fold. Besides, the IC50 in test [2] (rabbit 15-LO) is > 100000 nM. The activity at 100 µM in test [2] (rabbit 15-LO, compound 100 μM) came out at 64%.

For `CC(C)=CCC/C(C)=C/CC/C(C)=C/CC[C@@](C)(O)CCc1c(C)c(O)c(C)c(C)c1O` [αT3HQ, α-tocotrienol hydroquinone], the EC50 in test [1] was 43 nM. The IC50 in test [2] (rabbit 15-LO) was found to be 1990 nM. Moreover, the activity at 100 µM in test [2] (rabbit 15-LO, compound 100 μM) was 9%.

`CC(C)=CCC/C(C)=C/CC/C(C)=C/CC[C@@](C)(O)CCC1=C(C)C(=O)C(C)=C(C)C1=O` [αT3Q, α-tocotrienol quinone]: the EC50 in test [1] was determined as 43 nM.

Turning to `CC(C)=CCC/C(C)=C/CC/C(C)=C/CC[C@]1(C)CCc2cc(O)c(C)c(C)c2O1` [γT3, γ-tocotrienol], the activity at 100 µM in test [2] worked out at 33%.

Turning to `CC(C)=CCC/C(C)=C/CC/C(C)=C/CC[C@@](C)(O)CCc1cc(O)c(C)c(C)c1O` [γT3HQ, γ-tocotrienol hydroquinone], the EC50 in test [1] is 36 nM. In addition, in test [2] (rabbit 15-LO), the IC50 was 1120 nM. The activity at 100 µM in test [2] (rabbit 15-LO, compound 100 μM) came out at 7%.

Regarding `CC(C)=CCC/C(C)=C/CC/C(C)=C/CC[C@@](C)(O)CCC1=CC(=O)C(C)=C(C)C1=O` [γT3Q, γ-tocotrienol quinone], the EC50 in test [1] was found to be 52 nM.

For the compound `Cc1c(O)cc2c(c1C)O[C@](C)(CCC[C@H](C)CCC[C@H](C)CCCC(C)C)CC2` [γT, γ-tocopherol], the EC50 in test [1] was determined as 3220 nM. Besides, the activity at 100 µM in test [2] (rabbit 15-LO, compound 100 μM) was 34%.

`Cc1c(O)cc(CC[C@](C)(O)CCC[C@H](C)CCC[C@H](C)CCCC(C)C)c(O)c1C` [γTHQ, γ-tocopherol hydroquinone]: the EC50 in test [1] is 64 nM. The same compound came in with an IC50 in test [2] (rabbit 15-LO) of 2190 nM. The activity at 100 µM in test [2] (rabbit 15-LO, compound 100 μM) came out at 18%.

On to `CC1=C(C)C(=O)C(CC[C@](C)(O)CCC[C@H](C)CCC[C@H](C)CCCC(C)C)=CC1=O` [γTQ, γ-tocopherol quinone], for which, in test [1], the EC50 was determined as 101 nM.

On to `CC(C)=CCC/C(C)=C/CC/C(C)=C/CC[C@]1(C)CCc2cc(O)cc(C)c2O1` [δT3, δ-tocotrienol], for which the EC50 in test [1] amounted to 517 nM. Besides, the activity at 100 µM in test [2] (rabbit 15-LO, compound 100 μM) worked out at 46%.

For the compound `CC(C)=CCC/C(C)=C/CC/C(C)=C/CC[C@@](C)(O)CCc1cc(O)cc(C)c1O` [δT3HQ, δ-tocotrienol hydroquinone], the EC50 in test [1] was 146 nM. 1370 nM corresponded to half-maximal inhibition in test [2] (rabbit 15-LO) (IC50). Further, in test [2] (rabbit 15-LO, compound 100 μM), the activity at 100 µM came out at 14%.

As to `CC(C)=CCC/C(C)=C/CC/C(C)=C/CC[C@@](C)(O)CCC1=CC(=O)C=C(C)C1=O` [δT3Q, δ-tocotrienol quinone], the 50% effective concentration (EC50) in test [1] came to 163 nM.

For `Cc1cc(O)cc2c1O[C@](C)(CCC[C@H](C)CCC[C@H](C)CCCC(C)C)CC2` [δT, δ-tocopherol], the concentration for a half-maximal effect (EC50) in test [1] was determined as 5670 nM. Moreover, the activity at 100 µM in test [2] (rabbit 15-LO, compound 100 μM) worked out at 45%.

Consider `Cc1cc(O)cc(CC[C@](C)(O)CCC[C@H](C)CCC[C@H](C)CCCC(C)C)c1O` [δTHQ, δ-tocopherol hydroquinone], for which, in test [1], the EC50 is 84 nM. This compound also had an IC50 in test [2] (rabbit 15-LO) of 2090 nM. The activity at 100 µM in test [2] (rabbit 15-LO, compound 100 μM) was determined as 17%.

Take `CC1=CC(=O)C=C(CC[C@](C)(O)CCC[C@H](C)CCC[C@H](C)CCCC(C)C)C1=O` [δTQ]: the concentration giving a half-maximal response (EC50) in test [1] was 236 nM.

(Values after publication PMC6093661, “Vitamin E hydroquinone is an endogenous regulator of ferroptosis via redox control of 15-lipoxygenase” (PLoS ONE, 2018).)
